Measured values taken from patent publication US10988478B1, “Pyrazolo[1,5a]pyrimidine derivatives as IRAK4 modulators” (Genentech, Inc., priority 2015, dated 2021).

Target: human IRAK4 (Homo sapiens (Human), UniProt Q9NWZ3)
Experiment: IRAK4 kinase inhibition, Transcreener fluorescence polarization ADP assay
Format: biochemical
Conditions: recombinant full-length His6-IRAK4; 125 uM ATP; 90 min; Ki computed using ATP Km 642 uM
Experimental: Compounds were assayed for inhibition of human IRAK4 and IRAK1 catalytic activity using recombinant enzyme produced from insect cells. Full-length IRAK4 protein, carrying an N-terminal His6-Tag, was obtained from Life Technologies (Carlsbad, Calif., USA). The IRAK1 construct was produced internally and was comprised of IRAK1 residues Arg194 to Ser712, preceded by an NH2-terminal His6 tag and the coding sequence for glutathione-S-transferase.

Chain of human IRAK4 (Q9NWZ3 whole entry): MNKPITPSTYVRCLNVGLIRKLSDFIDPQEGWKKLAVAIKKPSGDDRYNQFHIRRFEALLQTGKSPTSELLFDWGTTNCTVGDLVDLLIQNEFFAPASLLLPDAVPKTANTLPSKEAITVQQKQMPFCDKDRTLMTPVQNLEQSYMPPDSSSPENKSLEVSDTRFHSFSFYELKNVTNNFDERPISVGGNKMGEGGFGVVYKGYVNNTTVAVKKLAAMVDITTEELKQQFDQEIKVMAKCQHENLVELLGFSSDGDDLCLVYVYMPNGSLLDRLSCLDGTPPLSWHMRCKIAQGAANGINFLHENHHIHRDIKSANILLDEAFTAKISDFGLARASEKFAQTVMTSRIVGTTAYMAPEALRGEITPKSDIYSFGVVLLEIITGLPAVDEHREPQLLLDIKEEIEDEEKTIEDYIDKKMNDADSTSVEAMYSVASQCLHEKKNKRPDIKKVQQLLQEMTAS

| Compound | Ki [µM] |
| --- | --- |
| C[C@]1(CO)Cc2cc(NC(=O)c3cnn4cccnc34)c(N3CCC(CO)CC3)cc2O1 [Example 129, (R)—N-(2-(Hydroxymethyl)-6-(4-(hydroxymethyl)piperidin-1-yl)-2-methyl-2,3-dihydrobenzofuran-5-yl)pyrazolo[1,5-a]pyrimidine-3-carboxamide] | 0.0032 |
| C[C@@]1(CO)Cc2cc(NC(=O)c3cnn4cccnc34)c(N3CCC(CO)CC3)cc2O1 [Example 130, (S)—N-(2-(hydroxymethyl)-6-(4-(hydroxymethyl)piperidin-1-yl)-2-methyl-2,3-dihydrobenzofuran-5-yl)pyrazolo[1,5-a]pyrimidine-3-carboxamide] | 0.0033 |
| C[C@@]1(CO)Cc2cc(NC(=O)c3cnn4cc(F)cnc34)c(N3CCN(CC(F)F)CC3)cc2O1 [Example 132, (S)—N-(6-(4-(2,2-Difluoroethyl)piperazin-1-yl)-2-(hydroxymethyl)-2-methyl-2,3-dihydrobenzofuran-5-yl)-6-fluoropyrazolo[1,5-a]pyrimidine-3-carboxamide] | 0.0048 |
| C[C@]1(CO)Cc2cc(NC(=O)c3cnn4cc(F)cnc34)c(N3CCN(CC(F)F)CC3)cc2O1 [Example 133, (R)—N-(6-(4-(2,2-Difluoroethyl)piperazin-1-yl)-2-(hydroxymethyl)-2-methyl-2,3-dihydrobenzofuran-5-yl)-6-fluoropyrazolo[1,5-a]pyrimidine-3-carboxamide] | 0.0041 |
| CC1(C)Cc2cc(NC(=O)c3cnn4cccnc34)c(N3CCN(C(C)(C)CO)CC3)cc2O1 [Example 137, N-[6-[4-(2-Hydroxy-1,1-dimethyl-ethyl)piperazin-1-yl]-2,2-dimethyl-3H-benzofuran-5-yl]pyrazolo[1,5-a]pyrimidine-3-carboxamide] | 0.17 |
| CC(C)N1Cc2cc(NC(=O)c3cnn4cccnc34)c(N3CCOCC3)cc2C1=O [Example 138, N-(2-Isopropyl-6-morpholino-1-oxoisoindolin-5-yl)pyrazolo[1,5-a]pyrimidine-3-carboxamide] | 0.0068 |
| CC(C)(O)[C@H](F)CN1Cc2cc(NC(=O)c3cnn4cccnc34)c(N3CCOCC3)cc2C1=O [Example 139, (R)—N-(2-(2-Fluoro-3-hydroxy-3-methylbutyl)-6-morpholino-1-oxoisoindolin-5-yl)pyrazolo[1,5-a]pyrimidine-3-carboxamide] | 0.0015 |
| CN1Cc2cc(NC(=O)c3cnn4cccnc34)c(N3CCOCC3)cc2C1=O [Example 140, N-(2-Methyl-6-morpholino-1-oxoisoindolin-5-yl)pyrazolo[1,5-a]pyrimidine-3-carboxamide] | 0.026 |
| CC1(C)Cc2cc(NC(=O)c3cnn4cccnc34)c(N3CCOCC3)c(C#N)c2O1 [Example 143, N-(7-Cyano-2,2-dimethyl-6-morpholino-2,3-dihydrobenzofuran-5-yl)pyrazolo[1,5-a]pyrimidine-3-carboxamide] | 0.74 |
| CCOP(=O)(OCC)OCC1CCN(c2cc3c(cc2NC(=O)c2cnn4cccnc24)CC(C)(C)O3)CC1 [Example 145, [1-[2,2-Dimethyl-5-(pyrazolo[1,5-a]pyrimidine-3-carbonylamino)-3H-benzofuran-6-yl]-4-piperidyl]methyl diethyl phosphate] | 0.13 |
| CC1(C)Cc2cc(NC(=O)c3cnn4cccnc34)c(N3CCCN(CC(F)F)CC3)cc2O1 [Example 149, N-(6-(4-(2,2-difluoroethyl)-1,4-diazepan-1-yl)-2,2-dimethyl-2,3-dihydrobenzofuran-5-yl)pyrazolo[1,5-a]pyrimidine-3-carboxamide] | 0.025 |
| CC(C)(O)CN1CCN(c2cc3c(cc2NC(=O)c2cnn4cccnc24)CC(C)(CO)O3)CC1 (stereo not shown) [Example 151, N-(6-(4-(2-Hydroxy-2-methylpropyl)piperazin-1-yl)-2-(hydroxymethyl)-2-methyl-2,3-dihydrobenzofuran-5-yl)pyrazolo[1,5-a]pyrimidine-3-carboxamide] | 0.072 |
| C[C@]1(C2CC2)Cc2cc(NC(=O)c3cnn4cccnc34)c(N3CCN(CC(F)F)CC3)cc2O1 [Example 159, (R)—N-(2-Cyclopropyl-6-(4-(2,2-difluoroethyl)piperazin-1-yl)-2-methyl-2,3-dihydrobenzofuran-5-yl)pyrazolo[1,5-a]pyrimidine-3-carboxamide] | 0.0044 |
| C[C@@]1(C2CC2)Cc2cc(NC(=O)c3cnn4cccnc34)c(N3CCN(CC(F)F)CC3)cc2O1 [Example 160, (S)—N-(2-Cyclopropyl-6-(4-(2,2-difluoroethyl)piperazin-1-yl)-2-methyl-2,3-dihydrobenzofuran-5-yl)pyrazolo[1,5-a]pyrimidine-3-carboxamide] | 0.0048 |
| C[C@]1(C2CC2)Cc2cc(NC(=O)c3cnn4cccnc34)c(N3CCC(F)(CO)CC3)cc2O1 [Example 161, (R)—N-(2-Cyclopropyl-6-(4-fluoro-4-(hydroxymethyl)piperidin-1-yl)-2-methyl-2,3-dihydrobenzofuran-5-yl)pyrazolo[1,5-a]pyrimidine-3-carboxamide] | 0.0038 |
| C[C@@]1(C2CC2)Cc2cc(NC(=O)c3cnn4cccnc34)c(N3CCC(F)(CO)CC3)cc2O1 [Example 162, (S)—N-(2-Cyclopropyl-6-(4-fluoro-4-(hydroxymethyl)piperidin-1-yl)-2-methyl-2,3-dihydrobenzofuran-5-yl)pyrazolo[1,5-a]pyrimidine-3-carboxamide] | 0.0045 |
| C[C@]1(CO)Cc2cc(NC(=O)c3cnn4cc(Cl)cnc34)c(N3CCC(CO)CC3)cc2O1 [Example 163, (R)-6-Chloro-N-(2-(hydroxymethyl)-6-(4-(hydroxymethyl)piperidin-1-yl)-2-methyl-2,3-dihydrobenzofuran-5-yl)pyrazolo[1,5-a]pyrimidine-3-carboxamide] | 0.0039 |

The remaining lines, values ahead:

| Ki [µM] | Compound |
| --- | --- |
| 0.016 | CC1(CO)CCc2cc(NC(=O)c3cnn4cccnc34)c(N3CCOCC3)cc2O1 (stereo not shown) [Example 141, N-(2-(Hydroxymethyl)-2-methyl-7-morpholinochroman-6-yl)pyrazolo[1,5-a]pyrimidine-3-carboxamide] |
| 0.02 | O=C(Nc1cc2c(cc1N1CCOCC1)OC1(CCNCC1)C2)c1cnn2cccnc12 [Example 142, N-(6-Morpholinospiro[3H-benzofuran-2,4′-piperidine]-5-yl)pyrazolo[1,5-a]pyrimidine-3-carboxamide] |
| 0.013 | Cc1cnc2c(C(=O)Nc3cc4c(cc3N3CCOCC3)OC(C)(C(F)F)C4)cnn2c1 (stereo not shown) [Example 144, N-(2-(Difluoromethyl)-2-methyl-6-morpholino-2,3-dihydrobenzofuran-5-yl)-6-methylpyrazolo[1,5-a]pyrimidine-3-carboxamide] |
| 0.027 | CN1CC2(Cc3cc(NC(=O)c4cnn5cccnc45)c(N4CCOCC4)cc3O2)C1 [Example 146, N-(1-methyl-6′-morpholino-3′H-spiro[azetidine-3,2′-benzofuran]-5′-yl)pyrazolo[1,5-a]pyrimidine-3-carboxamide] |
| 0.023 | O=C(Nc1cc2c(cc1N1CCOCC1)OC1(C2)CN(CC(F)F)C1)c1cnn2cccnc12 [Example 147, N-(1-(2,2-Difluoroethyl)-6′-morpholino-3′H-spiro[azetidine-3,2′-benzofuran]-5′-yl)pyrazolo[1,5-a]pyrimidine-3-carboxamide] |
| 0.0061 | O=C(Nc1cc2c(cc1N1CCOCC1)OC1(C2)CN(CC(F)(F)F)C1)c1cnn2cccnc12 [Example 148, N-[6-Morpholino-1′-(2,2,2-trifluoroethyl)spiro[3H-benzofuran-2,3′-azetidine]-5-yl]pyrazolo[1,5-a]pyrimidine-3-carboxamide] |
| 0.089 | CC(C)C1(C)Cc2cc(NC(=O)c3cnn4cccnc34)c(N3CCOCC3)cc2O1 (stereo not shown) [Example 150, N-(2-Isopropyl-2-methyl-6-morpholino-2,3-dihydrobenzofuran-5-yl)pyrazolo[1,5-a]pyrimidine-3-carboxamide] |
| 0.012 | CN1CCC2(CC1)Cc1cc(NC(=O)c3cnn4cccnc34)c(N3CCOCC3)cc1O2 [Example 152, N-(1′-Methyl-6-morpholino-3H-spiro[benzofuran-2,4′-piperidine]-5-yl)pyrazolo[1,5-a]pyrimidine-3-carboxamide] |
| 0.014 | O=C(Nc1cc2c(cc1N1CCOCC1)O[C@](CO)(C(F)(F)F)C2)c1cnn2cccnc12 [Example 153, (R)—N-(2-(hydroxymethyl)-6-morpholino-2-(trifluoromethyl)-2,3-dihydrobenzofuran-5-yl)pyrazolo[1,5-a]pyrimidine-3-carboxamide] |
| 0.0093 | O=C(Nc1cc2c(cc1N1CCOCC1)O[C@@](CO)(C(F)(F)F)C2)c1cnn2cccnc12 [Example 154, (S)—N-(2-(hydroxymethyl)-6-morpholino-2-(trifluoromethyl)-2,3-dihydrobenzofuran-5-yl)pyrazolo[1,5-a]pyrimidine-3-carboxamide] |
| 0.022 | C[C@]1(COC(F)F)Cc2cc(NC(=O)c3cnn4cccnc34)c(N3CCOCC3)cc2O1 [Example 155, (R)—N-(2-((difluoromethoxy)methyl)-2-Methyl-6-morpholino-2,3-dihydrobenzofuran-5-yl)pyrazolo[1,5-a]pyrimidine-3-carboxamide] |
| 0.027 | C[C@@]1(COC(F)F)Cc2cc(NC(=O)c3cnn4cccnc34)c(N3CCOCC3)cc2O1 [Example 156, (S)—N-(2-((difluoromethoxy)methyl)-2-Methyl-6-morpholino-2,3-dihydrobenzofuran-5-yl)pyrazolo[1,5-a]pyrimidine-3-carboxamide] |
| 0.0088 | CC(C)(O)[C@@]1(C)Cc2cc(NC(=O)c3cnn4cccnc34)c(N3CCOCC3)cc2O1 [Example 157, (R)—N-(2-(2-Hydroxypropan-2-yl)-2-methyl-6-morpholino-2,3-dihydrobenzofuran-5-yl)pyrazolo[1,5-a]pyrimidine-3-carboxamide] |
| 0.027 | CC(C)(O)[C@]1(C)Cc2cc(NC(=O)c3cnn4cccnc34)c(N3CCOCC3)cc2O1 [Example 158, (S)—N-(2-(2-Hydroxypropan-2-yl)-2-methyl-6-morpholino-2,3-dihydrobenzofuran-5-yl)pyrazolo[1,5-a]pyrimidine-3-carboxamide] |
